This is an account of results in patent US20250360155A1, “METHOD OF TREATING SPINAL CORD INJURY AND COMPOSITION FOR USE THEREIN” (ACADEMIA SINICA, priority 2022, published 2025).

For experiment [1], the system named is C57BL/6J mice with SCI. Description: Behavioral tests (Basso Mouse Scale, footprint analysis) after spinal cord contusion. The format is in vivo. The settings on record: vs vehicle. As to the method: (§1) Mice were anesthetized by intramuscular injection of Zoletil® (50 mg/kg; tiletamine hydrochloride and zolazepam hydrochloride) and Rompun® (12 mg/kg; xylazine hydrochloride) before the surgery. After laminectomy on the T9-T10 vertebral column, the spinal cord was exposed and contused by a 10 g rod with an impact head of 1.2 mm diameter at the height of 6.25 mm above the T10 spinal cord to allow it to drop using an Impactor model-II spinal cord contusion system (RWD6809911) to cause the contusion injury. In the sham group, surgery procedures were identical except for the spinal contusion. After the injury, the wound was quickly sutured using 4.0 silk thread (Unik Taiwan; New Taipei city, Taiwan). The bladders of mice were manually and gently massaged once a day to avoid retention of urine until the reflexive control of micturition was restored. Cefazolin (300 mg/kg) was given for consecutive three days after surgery to prevent infection. Fourteen days after the surgery, mice were sacrificed for analyses.
(§2) In one example for the treatment of J4, which can be used as an ENT1 inhibitor, male C57BL/6J mice (8-12 weeks old) were divided into three groups: the sham group, the SCI+J4 group and the SCI+vehicle group. Please refer to FIG. 1. In the J4 group, mice were pretreated with 10 mg/kg J4 twice a day for three days before the injury. Following the SCI, J4 (10 mg/kg) was administered to mice twice a day for consecutive 14 days. In vehicle group, mice were treated with 5% DMSO, instead of J4, following the same protocol of the J4-treated group. The sham group received the same treatment as the vehicle group. All mice were maintained on a 12 h light/dark schedule and given food and water ad libitum in the Laboratory Animal Center (an AAALAC accredited experimental animal facility) at National Taiwan University. Procedures involving animals were conducted according to the ARRIVE (Animal Research: Reporting In Vivo Experiments) guidelines.
(§3) In another example for the treatment of JMF 1907 (i.e. the compound of formula (III)), male C57BL/6J mice (8-12 weeks old) were divided into three groups: the JMF1907 group, the methylprednisolone (MPSS) group and the vehicle group. Wherein, JMF1907 (10 mg/kg twice daily for 14 days), methylprednisolone (30 mg/kg 10 min after crush, then at 2, 4, and 6 h after crush), or vehicle (0.5% DMSO, twice daily for 14 days) was administered to said mice.
The motor function after SCI was evaluated from day 3 to day 14 after the surgery by locomotor open-field rating scale on the Basso Mouse Scale (BMS).^6 Scoring ranged from 0 for complete paraplegia to 9 for normal function. The footprint analysis was assessed on day 14 after the surgery. The hindlimbs of the mice were dipped in red and black dye for left and right foot, respectively. […]

Experiment [2] has as its system C57BL/6J mice with SCI. Nature of the experiment: Nissl staining of spinal cord lesion after spinal cord contusion. Conditions: vs vehicle. The format is in vivo, mouse. As to the method: as §1
In one example for the treatment of J4, which can be used as an ENT1 inhibitor, male C57BL/6J mice (8-12 weeks old) were divided into three groups: the sham group, the SCI+J4 group and the SCI+vehicle group. Please refer to FIG. 1. In the J4 group, mice were pretreated with 10 mg/kg J4 twice a day for three days before the injury. […]

The test system of experiment [3] is C57BL/6J mice with SCI. Description: Immunofluorescence staining of spinal cord perilesional area after spinal cord contusion. The format is in vivo, mouse. As to the method: as §1, §2, §3
After being anesthetized by Zoletil® (50 mg/kg) and Rompun® (12 mg/kg), mice were intracardially perfused with ice-cold normal saline. The spinal cord (T9-T11) was removed and soaked in ice-cold 4% paraformaldehyde. The vertebrae were then placed in cassettes for paraffin embedding. The samples were cut into sagittal section of 4 μm and placed in water bath at 42° C. The section was mounted onto slides and stored at room temperature until analysis. After deparaffinization, tissue retrieval was conducted in sodium citrate buffer (pH=6) at 90° C. and the spinal cord slices were then washed with phosphate-buffered saline (PBS). Sections were incubated in antibody dilution buffer (Roche, Basel, Swiss) at room temperature. The slides were immunostained by the following primary antibodies: chicken anti-neuronal nuclear protein (NeuN) (1:2000; Merck-Millipore, Dramstadt, Germany), rabbit anti-ionized calcium-binding adapter molecule-1 (Iba-1) (1:1000; Abcam, Cambridge, MA, USA), or mouse anti-glial fibrillary acidic protein (Gfap) (1:1000; cell signaling, Danvers, Massachusetts, USA) overnight at 4° C. Corresponding secondary antibodies conjugated with Alexa Fluor 488 or Rhodamine (Jackson Immuno Research Laboratories, West Grove, PA, USA) were applied for the visualization of immunolabelling. After being washed with PBST (Phosphate Buffered Saline with Tween® 20) and PBS, the slices were mounted on a mounting gel (DAPI Fluoromount G; Southern Biotech Birmingham, Alabama, USA). Images were acquired by a Zeiss AXIO Imager M1 microscope (Carl Zeiss, Gottingen, Germany). […]

The test system of experiment [4] is C57BL/6J mice with SCI. Description: Western blot of spinal cord (T9-T11) after spinal cord contusion. It is filed as in vivo, mouse. Conditions: J4 10 mg/kg twice a day. On the procedure:
as §1, §2
The protein concentrations of the samples were determined by the Bio-Rad DC Protein Assay Kit (Bio-rad, Hercules, CA, USA). Protein samples (10 μg each) were diluted with loading buffer (200 mM Tris-HCl, 1.43% 2-mercaptoethanol, 0.4% bromophenol blue, and 40% glycerol) and heated at 98° C. The protein samples were then separated with 90 V for 10 minutes, followed by 130 V for 60 minutes on 12% SDS-polyacrylamide gel (for S100a10, c-caspase3 and GAPDH) or 8% SDS-polyacrylamide gel (for C3, NeuN) in running buffer (0.3% Tris base, 1.88% glycine, and 0.1% SDS). After electrophoresis, the gel was transferred onto a nitrocellulose membrane in transfer buffer (0.3% Tris base, 1.88% glycine, and 20% methanol; pH 8.3) with 300 mA for 90 minutes. Nonspecific binding to membrane was blocked by BlockPRO™ 1 Min Protein Free Blocking Buffer (Neihu, Taipei City, Taiwan) at room temperature on shaker at 25 rpm. […] Bound antibodies were detected using Chemiluminescence reagent Plus (PerkinElmer Life Sciences, MA, USA) and Bio-rad ChemiDoc™ XRS+ Systems and Image Lab™ Software to obtain images under appropriate exposure time.

Experiment [5] deals with C57BL/6J mice with SCI. Nature of the experiment: RT-qPCR of inflammatory cytokines in spinal cord after spinal cord contusion. It is filed as in vivo, mouse. The settings on record: J4 10 mg/kg twice a day; perilesional area, 14 days post-injury; vs vehicle. As to the method: as §1
In one example for the treatment of J4, which can be used as an ENT1 inhibitor, male C57BL/6J mice (8-12 weeks old) were divided into three groups: the sham group, the SCI+J4 group and the SCI+vehicle group. Please refer to FIG. 1. In the J4 group, mice were pretreated with 10 mg/kg J4 twice a day for three days before the injury. Following the SCI, J4 (10 mg/kg) was administered to mice twice a day for consecutive 14 days. […]
Mice were anesthetized by the inhalation of isoflurane. […] Total RNA isolation, quality check, cDNA synthesis and SYBR green based quantitative real-time PCR assay were performed as described previously.^7 The forward/reverse primer sequences for IL-1β, IL-6, TNF-α, and GAPDH were listed in Table 1. The relative expression of target genes normalized to that of glyceraldehyde 3-phosphate dehydrogenase (GAPDH) was calculated by the comparative Ct (ΔCt) and was expressed as 2−ΔCt. The relative quantity was determined by the formula: 2−ΔΔCt, in which ΔΔCt values were obtained by subtracting the ΔCt values of mice with SCI from the sham controls.

Setting [6] is: JMF1907 10 mg/kg twice daily for 14 days.
Where [7] appears, read: JMF1907 10 mg/kg twice daily for 14 days, vs vehicle.

For the compound `OC[C@H]1O[C@@H](n2cnc3c(NCc4ccc(Br)s4)ncnc32)[C@H](O)[C@@H]1O` [J4, N^6-[(5-bromothien-2-yl)methyl]adenosine], the “stride length (footprint analysis)” value with C57BL/6J mice with SCI [1] (J4 10 mg/kg twice a day, 3 days before and 14 days after SCI, 14 DPI) is “improved”. The BMS score result in the experiment with C57BL/6J mice with SCI [1] (J4 10 mg/kg twice a day, intraperitoneal, 3 days before injury and 14 days after SCI) is “improved”. Besides, in the experiment on C57BL/6J mice with SCI [2] (J4 10 mg/kg twice a day, 14 days post-injury), the “loss of spinal cord tissue (lesion volume, Nissl staining)” value is listed as “significantly reduced”. Besides, in the experiment with C57BL/6J mice with SCI [3] (J4 10 mg/kg twice a day, 14 DPI, vs vehicle), the “NeuN-positive cells in the perilesional area (immunostaining)” value is given as “more”. Also, the “intensity of Iba-1-positive cells” value in the experiment with C57BL/6J mice with SCI [3] (J4 10 mg/kg twice a day, perilesional area, 14 DPI, vs vehicle-treated group) is listed as “lower”. The “average fluorescence intensity of Gfap” value with C57BL/6J mice with SCI [3] (J4 10 mg/kg twice a day, perilesional area, 14 days post-injury, vs vehicle group) is “remarkably decreased”. The “protein level of c-caspase3” value in the experiment with C57BL/6J mice with SCI [4] (14 DPI, vs vehicle) was “decreased”. Besides, the “protein level of NeuN” value in the experiment with C57BL/6J mice with SCI [4] (14 DPI, vs vehicle group) is given as “higher”. In the experiment on C57BL/6J mice with SCI [4] (vs vehicle), the TGF-β protein entry was “significantly increased”, the “protein level of C3 (A1 astrocyte marker)” value is “significantly decreased” and the “protein level of S100a10 (A2 astrocyte marker)” value is recorded as “increased”. Further, in the experiment with C57BL/6J mice with SCI [5], the “expression of IL-6 (mRNA)” value is given as “trend of reduction”, the “expression of IL-10 (mRNA)” value was “trend of reduction” and the “expression of TNF-α (mRNA)” value was “significantly reduced”.

Take `OC[C@H]1O[C@@H](n2cnc3c(NCCc4c[nH]c5ccccc45)ncnc32)[C@@H](O)C1O` (stereo partly drawn) [JMF1907]: in the experiment with C57BL/6J mice with SCI [1] (setting [6]), the “motor function (BMS score)” value is “significantly improve” and the stride length result is “significantly improve”. For the same compound, in the experiment on C57BL/6J mice with SCI [2] (setting [6]), the “lesion of the SCI (Nissl staining)” value is recorded as “significantly reduce”. For the same compound, in the experiment on C57BL/6J mice with SCI [3] (setting [7]), the “lesion of the SCI (immunofluorescence analysis, Pdgf§ expression)” value is on record as “significantly reduce”; the “level of CD68 (marker for microglia)” value is reported as “significantly reduced”; the “level of Gfap (marker for reactive astrocytes)” value is on record as “significantly reduced”; the “level of Iba-1 (marker for microglia)” value was “significantly reduced”.
